Laboratory results: patent publication US20250041249A1, “METHOD OF TREATING LIVER STEATOSIS WITH BIOAVAILABLE FORMULATION OF OLEOYLETHANOLAMIDE” (THE REGENTS OF THE UNIVERSITY OF CALIFORNIA, priority 2021, published 2025)

Assays:
HFD-fed mice = assay: Subchronic i.p. OEA in HFD-fed mice: body weight gain and blood chemistry; type: in vivo, mouse; conditions: OEA 5 mg/kg i.p. once daily for 6 weeks, mean ± S.E.M
Method: 18-week-old mice were randomized into two groups; one received standard chow (6.5% kcal fat, Envigo 2020X, Livermore, CA) and the other a high-fat diet (HFD, 60% kcal fat, D12492, Research Diets, New Brunswick, NJ). Both were available ad libitum for 11 weeks. Body weight and food intake were recorded three times per week. Animals from both groups were randomly assigned to three cohorts: a) free feeding, b) fasting (from 6:00 pm to 12:00 pm on the following day) and c) fasting/refeeding (2 hr access to food after fasting). Mice assigned to the fasting and fasting/refeeding groups were housed in bottom-wired cages to prevent coprophagia. OEA was dissolved in a vehicle of 95% saline/5% Tween80 (v/v) shortly before experiments. It was administered by intraperitoneal (i.p.) injection at 5 mg/kg in a volume of 10 ml/kg. A comprehensive blood chemistry panel was performed at Antech Diagnostics (Irvine, CA). Diet-induced obesity is associated with the development of liver steatosis and fibrosis. We asked whether OEA supplementation might correct these alterations in HFD-fed mice, which are defective in endogenous OEA production. We exposed mice to HFD for 5 weeks, randomized them into two groups, and treated them either with OEA (5 mg/kg, once daily) or vehicle for 6 additional weeks of HFD exposure. As expected, OEA administration reduced body weight gain and lowered circulating total cholesterol and liver transaminase levels (Table 2, FIG. 5). These effects were accompanied by improvement in hepatic lipid profile (FIG. 3). […] Transcription of other relevant genes (Nrf1, Tnfa, Tgf1b, Nqo1) was not affected (FIG. 3h-j).

liver of HFD-fed mice = assay: Subchronic i.p. OEA in HFD-fed mice: liver lipid accumulation (Oil Red O, BODIPY, triglyceride kit); type: in vivo, mouse; conditions: OEA 5 mg/kg i.p. once daily 6 weeks, versus vehicle controls
Method: 18-week-old mice were randomized into two groups; one received standard chow (6.5% kcal fat, Envigo 2020X, Livermore, CA) and the other a high-fat diet (HFD, 60% kcal fat, D12492, Research Diets, New Brunswick, NJ). Both were available ad libitum for 11 weeks. Body weight and food intake were recorded three times per week. Animals from both groups were randomly assigned to three cohorts: a) free feeding, b) fasting (from 6:00 pm to 12:00 pm on the following day) and c) fasting/refeeding (2 hr access to food after fasting). Mice assigned to the fasting and fasting/refeeding groups were housed in bottom-wired cages to prevent coprophagia. OEA was dissolved in a vehicle of 95% saline/5% Tween80 (v/v) shortly before experiments. It was administered by intraperitoneal (i.p.) injection at 5 mg/kg in a volume of 10 ml/kg. Liver triglycerides were quantified using a colorimetric assay kit (Cayman Chemicals). Briefly, ˜30 mg of right liver lobe were mixed with 0.2 mL of assay buffer and processed following manufacturer's instructions. Oil Red O Staining: We embedded liver samples in a mold, cut them into 7-μm thick sections with a cryostat and fixed them with 4% paraformaldehyde (PFA) for 15 min. After fixation, we immersed the sections in phosphate-buffered saline (PBS) for 2 min, placed them in isopropanol (60%) for 2 min, and incubated them with Oil Red O (60% in isopropanol) for 30 min. […]

[1] = system: liver inflammation and fibrosis genes; assay: Subchronic i.p. OEA in HFD-fed mice: liver gene transcription (real time PCR); type: in vivo, mouse; conditions: OEA 5 mg/kg i.p. once daily 6 weeks, versus vehicle controls
Method: 18-week-old mice were randomized into two groups; one received standard chow (6.5% kcal fat, Envigo 2020X, Livermore, CA) and the other a high-fat diet (HFD, 60% kcal fat, D12492, Research Diets, New Brunswick, NJ). Both were available ad libitum for 11 weeks. Body weight and food intake were recorded three times per week. Animals from both groups were randomly assigned to three cohorts: a) free feeding, b) fasting (from 6:00 pm to 12:00 pm on the following day) and c) fasting/refeeding (2 hr access to food after fasting). Mice assigned to the fasting and fasting/refeeding groups were housed in bottom-wired cages to prevent coprophagia.
OEA was dissolved in a vehicle of 95% saline/5% Tween80 (v/v) shortly before experiments. It was administered by intraperitoneal (i.p.) injection at 5 mg/kg in a volume of 10 ml/kg.
We extracted total RNA from liver using TRIzol™ reagent (Thermo Fisher Scientific, Waltham, MS) and purified it with the PureLink™ RNA Mini Kit (Invitrogen, Waltham, MS) as directed by the supplier. Prior to purification, samples were passed through a gDNA Eliminator spin column (Qiagen, Germantown, CA). We quantified RNA using NanoDrop 2000/2000-c spectrophotometer (Thermo Fisher Scientific). cDNA was synthesized from […] of total RNA using the High-Capacity cDNA RT Kit with RNase inhibitor (Applied BioSystems, Foster City, CA) following manufacturer's instructions. First-strand cDNA was amplified using TaqMan™ Universal PCR Master Mixture (Thermo Fisher Scientific) Real-time PCR reactions were performed in 96-well plates using the CFX96™ Real-Time System (Bio-Rad, Hercules, CA). The thermal cycling conditions were as follows: initial denaturation set at 95° C. for 10 min, followed by 45 cycles, where each cycle was performed at 95° C. for 30 s followed by 55° C. for 60 s. ΔCt values were calculated using the geometric mean of three different housekeeping genes, and the relative fold changes over control groups (chow-free feed) were calculated by the 2-44Ct method. Real-time PCR primers and fluorogenic probes were purchased from Applied Biosystems (TaqMan (R) Gene Expression Assays, Foster City, CA). We used TaqMan gene expression assays for mouse Actb (Mm00607939_s1), Hprt (Mm00446968_m1), Gapdh (Mm99999915_g1), Tnfa (Mm00443258_m1), Il1b (Mm00434228_m1), Tgfb1 (Mm_01178820_m1), Ccl2 (Mm_00441242_m1) Hmox1 (Mm_00516005_m1), Col1a1 (Mm_00801666_g1), Nqo1 (Mm_01135606_m1), Nrf1 (Mm01135606_m1), Faah (Mm_00515684_m1), and NapepId (Mm_00724596_m1) (Applied Biosystems, Foster City, CA).
Diet-induced obesity is associated with the development of liver steatosis and fibrosis. We asked whether OEA supplementation might correct these alterations in HFD-fed mice, which are defective in endogenous OEA production. We exposed mice to HFD for 5 weeks, randomized them into two groups, and treated them either with OEA (5 mg/kg, once daily) or vehicle for 6 additional weeks of HFD exposure. As expected, OEA administration reduced body weight gain and lowered circulating total cholesterol and liver transaminase levels (Table 2, FIG. 5). These effects were accompanied by improvement in hepatic lipid profile (FIG. 3). […] Transcription of other relevant genes (Nrf1, Tnfa, Tgf1b, Nqo1) was not affected (FIG. 3h-j).

PPAR-α [2] = target: T1, PPAR-α (Homo sapiens, UniProt Q07869); conditions: read-out: affinity constant, KD; cited from earlier work
T1 sequence (Q07869 1-468): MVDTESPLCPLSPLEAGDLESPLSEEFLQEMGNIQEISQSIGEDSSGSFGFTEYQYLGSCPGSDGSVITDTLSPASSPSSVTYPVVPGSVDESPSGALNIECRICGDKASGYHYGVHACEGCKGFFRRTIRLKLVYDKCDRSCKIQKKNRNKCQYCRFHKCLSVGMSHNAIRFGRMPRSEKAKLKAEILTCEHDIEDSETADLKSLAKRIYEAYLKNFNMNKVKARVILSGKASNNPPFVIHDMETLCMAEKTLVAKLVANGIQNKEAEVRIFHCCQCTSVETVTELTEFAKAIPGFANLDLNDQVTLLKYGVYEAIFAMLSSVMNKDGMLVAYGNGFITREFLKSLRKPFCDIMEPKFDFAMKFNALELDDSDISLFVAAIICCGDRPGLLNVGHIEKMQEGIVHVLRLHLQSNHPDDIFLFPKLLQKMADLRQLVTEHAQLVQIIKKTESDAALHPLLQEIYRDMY

PPAR-α [3] = target: T1, PPAR-α; conditions: PPAR-α agonist; read-out: median effective concentration, EC50; cited from earlier work

CCCCCCCC/C=C\CCCCCCCC(=O)NCCO [OEA, oleoylethanolamide]
A Body weight (HFD-fed mice): 2.27 ± 0.5 g | ALT (SPGT) (HFD-fed mice): 45.4 ± 6.9 IU/L | AST (SGOT) (HFD-fed mice): 86.1 ± 9.9 IU/L | Cholesterol (HFD-fed mice): 173.6 ± 7.6 mg/dL | Glucose (HFD-fed mice): 250.5 ± 19.1 mg/dL | Triglyceride (HFD-fed mice): 81.0 ± 4.9 mg/dL | liver lipid content (Oil Red O and BODIPY staining of liver sections) (liver of HFD-fed mice): reduced | liver triglyceride content (liver of HFD-fed mice): lower | liver transcription of C-C Motif Chemokine Ligand 2 (Ccl2) [1]: attenuated | liver transcription of Nqo1 [1]: not affected | liver transcription of Nrf1 [1]: not affected | liver transcription of Tgf1b [1]: not affected | liver transcription of Tnfa [1]: not affected | liver transcription of collagen type I a1 (Col1a1) [1]: attenuated | liver transcription of heme oxygenase 1 (Hmox1) [1]: enhanced | liver transcription of interleukin 1B (1/1b) [1]: attenuated | Kd (PPAR-α [2]): ~40 nM | EC50 (PPAR-α [3]): ~120 nM
